According to patent US9963488B2, “Variants of the lantibiotic MU1140 and other lantibiotics with improved pharmacological properties and structural features” (priority 2012, dated 2018):

What was measured:
[1] = test system: Clostridium difficile UK1; assay: Minimum inhibitory concentration; assay type: cell-based; details: THyex medium; anaerobic chamber at 37° C.; peptide about 90% purity
Procedure: (§1) Wild-type mutacin 1140, mutacin 1140 with a F1I mutation, mutacin 1140 with a W4A mutation, and mutacin 1140 with a R13D mutation was purified to about 90% purity (measured via HPLC). The minimum inhibitory concentration (MIC) of MU1140 and variants of MU1140 was determined against several bacteria. The MIC is the lowest concentration of MU1140 that will inhibit the visible growth of a microorganism after 24 hour incubation. A lower MIC is an indication of greater inhibitory activity. Preparation of the antimicrobial agent and bacterial inoculum for minimum inhibitory concentrations (MICs) was performed by following the method described in Clinical Laboratory Standard Institute (CLSI) M07-8A with some minor modifications. Streptococcus mutans UA159 was tested overnight in a shaking incubator to maintain uniform dispersion of the bacteria. Clostridium difficile UK1 was tested in an anaerobic chamber at 37° C. The medium used was THyex.

[2] = test system: Micrococcus luteus ATCC10240; assay: Minimum inhibitory concentration; assay type: cell-based; details: THyex medium; 24 hour incubation; peptide about 90% purity
Procedure: as §1

[3] = test system: Staphylococcus aureus FA1; assay: Minimum inhibitory concentration; assay type: cell-based; details: THyex medium; 24 hour incubation; peptide about 90% purity
Procedure: as §1

[4] = test system: Streptococcus mutans UA159; assay: Minimum inhibitory concentration; assay type: cell-based; details: THyex medium; overnight in shaking incubator; peptide about 90% purity
Procedure: as §1

[5] = test system: Streptococcus pneumonia FA1; assay: Minimum inhibitory concentration; assay type: cell-based; details: THyex medium; 24 hour incubation; peptide about 90% purity
Procedure: as §1

[6] = test system: all Gram positive bacteria against which it was tested; details: cited from earlier work
[7] = test system: S. pneumonia; details: cited from earlier work
[8] = test system: multi-drug resistant strains of S. aureus; details: cited from earlier work
[9] = test system: vancomycin-resistant Enterococcus faecium (VREF); details: cited from earlier work
[10] = test system: Gram-negative bacteria or yeast; details: cited from earlier work
[11] = cited from earlier work
[12] = murine models, cited from earlier work
[13] = test system: Staphylococcus aureus; details: pilot study; 60 times the LD50 of Staphylococcus aureus administered; cited from earlier work
[14] = test system: S. aureus or Streptococcus pneumoniae; details: repeated subculture in medium with sub-lethal concentrations; cited from earlier work

Mu1140 Wild-type: wild-type lantibiotic MU1140 (SEQ ID NO:17) produced by Streptococcus mutans strain JH1140 (FKAWXLAXPGAARXGAFNAYA; not fully specified; lantibiotic post-translational modifications; DISULFID (3)..(7); (5)..(5) X is Dha amino acid; DISULFID (8)..(11); MOD_RES (8)..(8) Abu; (14)..(14) X is Dhb amino acid; DISULFID (16)..(21); (19)..(21) lanthionine bridge)
MIC Clostridium difficile UK1 [1]: 16 | MIC Micrococcus luteus ATCC10240 [2]: 0.0625 | MIC Staphylococcus aureus FA1 [3]: 16 | MIC Streptococcus mutans UA159 [4]: 2 | MIC Streptococcus pneumonia FA1 [5]: 0.5 | minimum inhibitory concentration (MIC) [6]: submicromolar | mode of antibacterial action [7]: bactericidal | mode of antibacterial action [8]: bactericidal | mode of antibacterial action [9]: bacteriostatic | activity [10]: no activity | cytotoxicity in vitro [11]: low cytotoxicity | toxicity ([12]; intravenous route): low toxicity | distribution [12]: distributed into all body compartments | efficacy [13]: efficacy was achieved | development of significant resistance [14]: not observed
